From US9862708B2, “Pyrazolone compounds and uses thereof” (Tempest Therapeutics, Inc., priority 2014, dated 2018)
pIC50: −log10 of the molar value.

Biological target: T1, human PPARα (Homo sapiens, UniProt Q07869)
T1 construct: host or cells: proprietary non-human mammalian cells
T1 sequence (Q07869 1-468): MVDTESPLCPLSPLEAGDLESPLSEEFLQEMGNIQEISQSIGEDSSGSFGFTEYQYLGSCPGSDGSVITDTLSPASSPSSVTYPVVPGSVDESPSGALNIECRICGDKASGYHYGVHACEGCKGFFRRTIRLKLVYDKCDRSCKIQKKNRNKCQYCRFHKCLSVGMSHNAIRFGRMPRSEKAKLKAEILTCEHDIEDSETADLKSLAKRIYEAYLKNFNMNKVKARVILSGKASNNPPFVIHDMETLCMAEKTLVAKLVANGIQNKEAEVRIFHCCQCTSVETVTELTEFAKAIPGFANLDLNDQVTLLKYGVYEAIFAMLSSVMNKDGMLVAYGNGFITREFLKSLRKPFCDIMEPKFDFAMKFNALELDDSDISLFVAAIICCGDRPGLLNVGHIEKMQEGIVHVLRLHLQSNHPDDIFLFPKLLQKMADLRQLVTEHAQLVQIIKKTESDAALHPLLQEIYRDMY
Assay: Human PPARα Reporter Assay (luciferase, Indigo Biosciences)
Type: cell-based
Settings: antagonism; luciferase reporter cells, overnight incubation; read-out: PPARα IC50
Experimental: Human PPARα Reporter Assay
The screening of test compounds for agonist or antagonist activities against human PPARα receptors was performed using a commercial kit, Human PPARα Reporter Assay System (Indigo Biosciences, Cat. #IB00111).
This nuclear receptor assay system utilizes proprietary non-human mammalian cells engineered to provide constitutive, high-level expression of Human PPARα. Because these cells incorporate a PPARα-responsive luciferase reporter gene, quantifying expressed luciferase activity provides a sensitive surrogate measure of PPARα activity in the treated cells. The primary application of this reporter assay system is in the screening of test samples to quantify any functional activity, either agonist or antagonist, that they may exert against human PPARα.
Briefly, reporter cells are dispensed into wells of the assay plate and then immediately dosed with test compounds. Following an overnight incubation, the treatment media is discarded and Luciferase Detection Reagent (LDR) is added. The intensity of light emission from the ensuing luciferase reaction provides a sensitive measure that is directly proportional to the relative level of PPARα activation in the reporter cells.

| SMILES | pIC50 |
| --- | --- |
| CC(C)(Oc1ccc(CCCC2=NN(c3ccc(C(F)(F)F)cc3)C(=O)C2(C)C)cc1)C(=O)NS(=O)(=O)c1ccccc1 [Example 22, 2-(4-(3-(4,4-dimethyl-5-oxo-1-(4-(trifluoromethyl)phenyl)-4,5-dihydro-1H-pyrazol-3-yl)propyl)phenoxy)-2-methyl-N-(phenylsulfonyl)propanamide] | 9.05 |
| CC1(C)C(=O)N(c2ccc(C(F)(F)F)cc2)N=C1CCCc1ccc(OC(C)(C(=O)O)c2ccccc2)cc1 (single isomer, unassigned) [53-enantiomer#1, 2-(4-(3-(4,4-dimethyl-5-oxo-1-(4-(trifluoromethyl)phenyl)-4,5-dihydro-1H-pyrazol-3-yl)propyl)phenoxy)-2-phenylpropanoic acid] | 6.09 |
| CC(C)(Oc1ccc(CCCC2=NN(Cc3ccc(C(F)(F)F)c(F)c3)C(=O)C2(C)C)cc1)C(=O)O [Example 18, 2-(4-(3-(1-(3-fluoro-4-(trifluoromethyl)benzyl)-4,4-dimethyl-5-oxo-4,5-dihydro-1H-pyrazol-3-yl)propyl)phenoxy)-2-methylpropanoic acid] | 6.92 |
| CC(C)c1ccc(CN2N=C(CCCc3ccc(OC(C)(C)C(=O)O)cc3)C(C)(C)C2=O)cc1 [Example 12, 2-(4-(3-(1-(4-isopropylbenzyl)-4,4-dimethyl-5-oxo-4,5-dihydro-1H-pyrazol-3-yl)propyl)phenoxy)-2-methylpropanoic acid] | 7.66 |
| CC(C)(Oc1ccc(CCCC2=NN(c3ccc(C(F)(F)F)cc3)C(=O)C2(C)C)cc1)C(=O)O [Example 19, 2-(4-(3-(4,4-dimethyl-5-oxo-1-(4-(trifluoromethyl)phenyl)-4,5-dihydro-1H-pyrazol-3-yl)propyl)phenoxy)-2-methylpropanoic acid] | 8.42 |
| Cc1ccc(N2N=C(CCCc3ccc(OC(C)(C)C(=O)O)cc3)C3(CCCC3)C2=O)cc1C [Example 31, 2-(4-(3-(3-(3,4-dimethylphenyl)-4-oxo-2,3-diazaspiro[4,4]non-1-en-1-yl)propyl)phenoxy)-2-methylpropanoic acid] | 8.59 |

Other lines, results leading:

| pIC50 | SMILES |
| --- | --- |
| 7.49 | CC(C)(Oc1ccc(CCCC2=NN(c3cccc(C(F)(F)F)c3)C(=O)C23CCCC3)cc1)C(=O)O [Example 35, 2-methyl-2-(4-(3-(4-oxo-3-(3-(trifluoromethyl)phenyl)-2,3-diazaspiro[4,4]non-1-en-1-yl)propyl)phenoxy)propanoic acid] |
| 8.55 | CC(C)(Oc1ccc(CCCC2=NN(c3ccc4ccccc4c3)C(=O)C23CCCC3)cc1)C(=O)O [Example 37, 2-methyl-2-(4-(3-(3-(naphthalen-2-yl)-4-oxo-2,3-diazaspiro[4,4]non-1-en-1-yl)propyl)phenoxy)propanoic acid] |
| 6.60 | Cc1ccc(N2N=C(CCCc3ccc(OC(C)(C)C(=O)NC4CC4)cc3)C3(CCCC3)C2=O)cc1C [Example 32, N-cyclopropyl-2-(4-(3-(3-(3,4-dimethylphenyl)-4-oxo-2,3-diazaspiro[4,4]non-1-en-1-yl)propyl)phenoxy)-2-methylpropanamide] |
| 7.57 | CC(C)(Oc1ccc(CCCC2=NN(c3cccc(OC(F)(F)F)c3)C(=O)C23CCCC3)cc1)C(=O)O [Example 36, 2-methyl-2-(4-(3-(4-oxo-3-(3-(trifluoromethoxy)phenyl)-2,3-diazaspiro[4,4]non-1-en-1-yl)propyl)phenoxy)propanoic acid] |
| 6.30 | Cc1ccc(N2N=C(CCCc3ccc(OC(C)(C)C(=O)NCC(F)(F)F)cc3)C3(CCCC3)C2=O)cc1C [Example 33, 2-(4-(3-(3-(3,4-dimethylphenyl)-4-oxo-2,3-diazaspiro[4,4]non-1-en-1-yl)propyl)phenoxy)-2-methyl-N-(2,2,2-trifluoroethyl)propanamide] |
| 7.24 | CC1(C)C(=O)N(c2cccc(C(F)(F)F)c2)N=C1CCCc1ccc(OC2(C(=O)O)CCC2)cc1 [Example 51, 1-(4-(3-(4,4-dimethyl-5-oxo-1-(3-(trifluoromethyl)phenyl)-4,5-dihydro-1H-pyrazol-3-yl)propyl)phenoxy)cyclobutanecarboxylic acid] |
